# Columns and labels:
# Type in all cases: in vivo
# sensory panel [1] = assay: Bitter masking in 0.3% KCl solution, sensory panel; details: 0.3% KCl with 50 ppm compound, compared with 0.3% KCl alone
# Text: (§1) The solutions were tasted by a sensory panel.
# sensory panel [2] = assay: Salt enhancement in 0.5% NaCl aqueous solution, sensory panel; details: 0.5% NaCl aq. solution with 50 ppm compound, compared with 0.5% NaCl alone
# Text: The solutions were tasted by a sensory panel. Solution A was describes as “salty”.
# Aqueous solutions comprising 0.5% NaCl and 50 ppm of the compounds of example 2-21, respectively, have been prepared and tasted by a sensory panel in comparison with an aqueous solution comprising 0.5% NaCl.
# Aqueous solutions comprising 0.5% NaCl and 50 ppm of the compounds of example 38-58, respectively, have been prepared and tasted by a sensory panel in comparison with an aqueous solution comprising 0.5% NaCl.
# sensory panel [3] = assay: Umami enhancement in savoury model solution (NaCl, MSG, Ribotides), sensory panel; details: 0.5% NaCl, 0.03% MSG, 0.007% Ribotides with 50 ppm compound, compared with solution A without compound
# Text: The solutions were tasted by a sensory panel. Solution A is a model solution for savoury taste, containing MSG (monosodium glutamate) and Ribotides (IMP/GMP, 50/50 mixture) as savoury taste enhancer.
# Two aqueous solutions have been prepared: • A) 0.5% NaCl, 0.03% MSG, 0.007% Ribotides, and • B) 0.5% NaCl, 0.03% MSG, 0.007% Ribotides and 50 ppm of the compound of example 38-58, respectively.
# sensory panel [4] = assay: Effect on soy based vegan burger, sensory panel; details: 70 ppm compound
# Text: Soy based vegan burgers with and without the compound of example 1 have been tasted by a sensory panel.
# sensory panel [5] = assay: Effect on cheese sauce, sensory panel; details: 50 ppm compound
# Text: The effect of the compound of example 1 on cheese sauce was explored. Therefore, a cheese sauce has been compared by a sensory panel with a sample of the sauce further comprising 50 ppm of the compound of example 1.
# sensory panel [6] = assay: Effect on model broth base, sensory panel; details: model broth base with 0.3% NaCl, 50 ppm compound
# Text: A model broth base, comprising 0.3% of NaCl was compared with a sample further comprising 50 ppm of the compound of example 1.
# as §1
# sensory panel [7] = assay: Effect on processed meat, sensory panel; details: 70 ppm compound
# Text: Samples of processed meat with full salt flavor and sodium reduced flavor have been tasted by a sensory panel with and without the compound of example 1.
# Sample 1 was comprising a full salt flavor base.
# Sample 2 was comprising a full salt flavor base and 70 ppm of the compound of example 1.
# Sample 3 was comprising a salt reduced (33.3%) flavor base and a saltiness flavor modulator.comprising KCl.
# Sample 4 was comprising a salt reduced (33.3%) flavor base, a saltiness flavor modulator.comprising KCl, and 70 ppm of the compound of example 1.
# sensory panel [8] = assay: Effect on mayonnaise, sensory panel; details: commercially available mayonnaise, 70 ppm compound
# Text: Samples of commercially available mayonnaise with and without addition of the compound of example 1 have been compared by a sensory panel.
# sensory panel [9] = assay: Salt enhancement in 0.3% NaCl solution at different concentrations, sensory panel
# sensory panel [10] = assay: Effect on potato chips, sensory panel; details: potato chips with 1.5% salt, 70 ppm compound
# Text: Potato chips with 1.5% salt have been tasted by a sensory panel with and without additional compound of example 1.
# sensory panel [11] = assay: Effect on corn curls with cheese flavor, sensory panel; details: 70 ppm compound
# Text: Corn curls with cheese flavor with and without addition of the compound of example 1 have been compared by a sensory panel.
# sensory panel [12] = assay: Effect on vegan cheese, sensory panel; details: vegan cheese with 0.2% cheese parmesan natural flavor, 70 ppm compound
# Text: Samples of vegan cheese comprising 0.2% cheese parmesan natural flavor have been compared with and without the compound of example 1 by a sensory panel.
# sensory panel [13] = assay: Taste in water by a sensory panel
smiles,measurement,setting,value
"O=C(/C=C/c1c[nH]cn1)NCCc1c[nH]cn1 [Example 1, (2E)-3-(1H-imidazol-4-yl)-N-[2-(1H-imidazol-4-yl)ethyl]prop-2-enamide]",bitter and salty taste versus 0.3% KCl solution,sensory panel [1],less bitter and more salty and mineral
same,salty taste versus 0.5% NaCl solution,sensory panel [2],more salty with a mineralic note
same,saltiness and umami versus savoury model solution,sensory panel [3],strong boost of saltiness and umami
same,taste versus vegan burger without compound,sensory panel [4],"more salty, having a mineral linger, contributing well to the perception of a burger"
same,taste versus plain cheese sauce,sensory panel [5],"more mineral and salty, with a mineralic linger, and having a natural aged cheese character"
same,acidity of the broth base,sensory panel [6],The sharp acidity of the broth base was reduced
same,taste versus model broth base,sensory panel [6],more mineral and salty
same,"taste of processed meat, sample 2 versus sample 1",sensory panel [7]; full salt flavor base,more salty and mineral
same,"taste of processed meat, sample 4 versus sample 1",sensory panel [7]; salt reduced (33.3%) flavor base with saltiness flavor modulator comprising KCl,"improved salt-peak, increased salinity, prolonged saltiness, significantly reduced bitterness and astringency, and increased salivation"
same,taste versus pure mayonnaise,sensory panel [8],instant tingly salty with a mineral linger and enhanced acidity
same,upper level at which the salt enhancing effect was perceived,sensory panel [9],up to 200 ppm
same,salt enhancement in 0.3% NaCl solution,sensory panel [9]; 1 ppm or higher,"a salt enhancing effect, providing a more lingering, mineralic and fuller salt taste"
same,salt enhancement in 0.3% NaCl solution,sensory panel [9]; below 1 ppm,No salt enhancement was perceived
same,taste versus potato chips without compound,sensory panel [10],a higher salty impact and a lingering effect
same,taste versus corn curls without compound,sensory panel [11],"more salty, lingering and mineralic"
same,taste versus vegan cheese without compound,sensory panel [12],"more salty and mineral, and the overall taste is lifted"
same,taste effect in water,"sensory panel [13]; 50 ppm or higher, noticeable up to 1000 ppm",slight effect of mouth drying
same,taste effect in water,sensory panel [13]; up to 40 ppm,no effect was noticed
same,taste as such in water,sensory panel [13]; up to 1000 ppm,"no taste as such was perceived, in particular no saltiness"

# From patent publication US20240409517A1, “ORGANIC COMPOUNDS” (GIVAUDAN SA, priority 2021, published 2024)
